From ChEMBL document CHEMBL2046438, “Indole alkaloids from Geissospermum reticulatum” (J Nat Prod, 2012)
≈ marks a conversion by molar mass, not a printed value. Calls of active or inactive are those of the source. No cut-off for these calls is given here.

Assays:
[1] = Cytotoxicity against CHO cells assessed as cell viability after 48 hrs by MTT colorimetric assay; type: cell-based, Cricetulus griseus; conditions: chinese hamster
[2] = tested on: Leishmania infantum; test: Leishmanicidal activity against promastigote form of Leishmania infantum PB75 after 48 hrs by modified colorimetric method; type: functional; conditions: PB75, 48 h
[3] = tested on: CHO; test: Cytotoxicity against CHO cells assessed as cell viability at 1 to 100 ug/ml after 48 hrs by MTT colorimetric assay; type: cell-based, Cricetulus griseus; conditions: chinese hamster
[4] = tested on: Trypanosoma cruzi; test: Antitrypanosomal activity against epimastigote form of Trypanosoma cruzi Y at 1 to 100 ug/ml after 72 hrs by modified MTT colorimetric assay; type: functional, organism-based
[5] = tested on: Trypanosoma cruzi; test: Antitrypanosomal activity against epimastigote form of Trypanosoma cruzi Y after 72 hrs by modified MTT colorimetric assay; type: functional

SMILES | GI50 at 48 h [1] | GI50 [2] | also measured
CC1CS(=O)(=O)CCN1/N=C/c1ccc([N+](=O)[O-])o1 (stereo not drawn) [NIFURTIMOX] | 13.9 µg/mL (≈ 48.4 µM) | – | –
C[C@@H]1[C@H](O)[C@@H](C)/C=C/C=C/C=C/C=C/C=C/C=C/C=C/[C@H](O[C@@H]2O[C@H](C)[C@@H](O)[C@H](N)[C@@H]2O)C[C@@H]2O[C@](O)(C[C@@H](O)C[C@@H](O)[C@H](O)CC[C@@H](O)C[C@@H](O)CC(=O)O[C@H]1C)C[C@H](O)[C@H]2C(=O)O [AMPHOTERICIN B] | 10.3 µg/mL (≈ 11.1 µM) | – | –
COc1cc(O)c2c(c1)[C@]13CCN4CC[C@H](C[C@@H]1N2C(C)=O)C1=CCO[C@]143 | – | > 100 µg/mL | –
COc1ccc2c(c1O)N(C(C)=O)[C@H]1C[C@@H]3CCN(C)CC[C@@]21C(=O)[C@]31O[C@H]1C | – | > 100 µg/mL | –
C/C=C1/C(=O)[C@@]23CCN(C)CC[C@H]1C[C@@H]2N(C(C)=O)c1c3ccc(OC)c1O | – | > 100 µg/mL | –
CCCC(=O)N1c2c(O)cccc2[C@]23CCN4CC[C@H](C[C@H]12)C1=CCO[C@]143 | – | 52.2 µg/mL (≈ 142 µM) | –
CCc1ccc2c3[nH]c4ccccc4c3cc[n+]2c1.[Cl-] [FLAVOPEREIRINE] | – | – | Activity [3]: Toxic; Activity [4]: Active
CC[C@@]12CCCN3CC[C@]4(c5cccc(O)c5N(C(C)=O)[C@@H]4CC1)[C@H]32 | 16.7 µg/mL (≈ 49.1 µM) | 7.7 µg/mL (≈ 22.6 µM) | GI50 [5]: 41.7 µg/mL (≈ 122 µM)
CC(=O)N1c2c(O)cccc2[C@]23CCN4CC[C@H](C[C@H]12)C1=CCO[C@]143 [GEISSOSPERMIDINE] | – | > 100 µg/mL | –
C/C=C1\C(=O)[C@@]23CCN(C)CC[C@H]1C[C@@H]2N(C(C)=O)c1c3ccc(OC)c1O | – | > 100 µg/mL | –
